The source of these data is patent publication US4550118A, “Heterocyclic compounds” (Ikeda Mohando Co., Ltd., priority 1982, dated 1985).

The subject of series [1] is acid secretion in pylorus-ligated rats. The series can be described thus: Anti-secretory effect (histamine-stimulated gastric acid secretion) in pylorus-ligated rat. The conditions noted are these: Rattus norvegicus, sc, 3 h; 2 mg/kg s.c., 30 min before histamine 3 mg/kg s.c.; n=5; * significant at 5%, ** at 1% vs control; read-out: inhibitory effect of acid secretion (%) at 2 mg/kg s.c. In kind it is in vivo, male wistar rats. As for the experimental part:
(A) Anti-secretory Effect in Pylorus-ligated Rat
After 24 hr fasting, male wistar rats weighing about 160 g were anesthetized by intraperitoreal injection of urethans 1.2 g/kg. Then, after ligating the pylorus and the esophagus, the proventriculus was incised and a double polyethylene cannula was inserted. The gastric wall was washed out with 5 ml of physiological saline every 30 minutes and the amount of acid contained in the saline after washing was measured by titration. After measuring the basal acid secretion of the pylorus ligated rats three times, the compounds of the invention, 2 mg/kg, were administered subcutaneously and, 30 minutes thereafter, histamine 3 mg/kg, was administered also subcutaneously. Then, the amounts of acid secretion were measured for 3 hours. […] Then, an inhibition rate was calculated in accordance with the following formula, in relation to the increment values measured for the control group. [formula]
One group included five examples.

Series [2] addresses T1, histamine H2 receptor in atria (Cavia porcellus, UniProt P47747).
T1 construct: right atrium was isolated; from tissue; host or cells: isolated right atrium of male Hartley guinea pig
Nature of the series: Histamine H2 receptor inhibition effect by isolated guinea pig right atrium preparation (negative chronotropic effect). In kind it is cell-based, Male Hartley Guinea Pig. The conditions noted are these: 5×10^-6 mol sample 3 minutes prior to histamine, mean of five, read-out: inhibitory effect of histamine H2 receptor in atria (pA2 value) (converted). On the procedure: (B) Measurement of Histamine H2 Receptor Inhibition Effect by Isolated Guinea Pig Right Atrium Preparation
Male Hartley Guinea Pig weighing around 400 g was sacrified by decapitation, and right atrium was isolated. The right atrium was suspended in an organ bath (50 ml) containing modified Ringer solution. Under application of a tensile load of 1 g, the heart rate was recorded by means of a polygraph. Histamine was applied cumulatively from 1×10^-7 mol to 3×10^-4 mol and a cumulative dosage response curve was drawn. Then, 5×10^-6 mol of the sample was administered 3 minutes prios to histamine application. The negative logarithmic value (pA2) of the specimen molarity required for shifting the curve to the right to double concentration was calculated.

The nature of series [3]: Acute oral toxicity test in mice (LD50, Litchfield-Wilcoxon). The conditions noted are these: mouse, in vivo. As for the experimental part: Male dd-mice were divided into groups of 5 and fasted for 8 hours. The test compounds were administered orally to the mice weighing from 19.7 g. to 22.0 g. The mice were observed survival or death as well as the general symptoms over 7 days after the administration of the compounds. The value of LD50 for each compound was estimated from the mortality observed on the basis of the Litchfield-Wilcoxon method.
In a similar test, the test compound of example 27, 35, 66, 84, 97, 104, 118, 125 or 129 was administered orally to the mice at a dose of 1500 mg/kg.

Series [4] has as its system acid secretion in pylorus-ligated rats. Nature of the series: Anti-secretory effect (histamine-stimulated gastric acid secretion) in pylorus-ligated rat. The format is in vivo, male wistar rats. The conditions noted are these: for ED50: read-out: ED 50 (acid secretion inhibition); for acid secretion inhibition: 5 rats.
[5] abbreviates: similar test, oral dose of 1500 mg/kg.

Counter-ions that a name gives are not always drawn. Like-named read-outs stand apart in the source and are kept apart here.

T1 sequence (P47747 whole entry): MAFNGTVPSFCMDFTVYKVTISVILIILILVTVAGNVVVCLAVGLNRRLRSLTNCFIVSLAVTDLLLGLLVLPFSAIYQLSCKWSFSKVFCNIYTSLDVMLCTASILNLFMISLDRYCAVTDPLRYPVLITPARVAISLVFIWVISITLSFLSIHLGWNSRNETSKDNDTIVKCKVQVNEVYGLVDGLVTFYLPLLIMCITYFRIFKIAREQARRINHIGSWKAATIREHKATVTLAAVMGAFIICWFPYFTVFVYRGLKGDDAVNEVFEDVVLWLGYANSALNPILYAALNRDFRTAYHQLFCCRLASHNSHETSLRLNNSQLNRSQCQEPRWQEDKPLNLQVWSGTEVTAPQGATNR

For orientation: LD50 means the dose at which mortality reaches 50%. Low readings indicate greater toxicity, high ones lower toxicity. Turning to `O=c1[nH]c(NCCCOc2ccc3[nH]c(CN4CCCC4)nc3c2)nnc1Cc1cccnc1` [Example 84], the inhibition in vivo at 2 mg/kg in series [1] was 75%. Moreover, the Kb in series [2] was 2190 nM. Further, the LD50 at 168 h in series [3] (setting [5]) is greater than 1500 mg/kg.

In the case of `CN(C)Cc1nc2cc(OCCCNc3ncc(Cc4cccnc4)c(=O)[nH]3)ccc2[nH]1` [Example 66, 2-[3-<5-(2-dimethylaminomethylbenzimidazolyl)oxy>propylamino]-5-(3-pyridylmethyl)-4-pyrimidone], the inhibition in vivo at 2 mg/kg in series [1] stood at 100%. For the same molecule, the Kb in series [2] was 1950 nM. In series [3] (setting [5]), this molecule gave a 50% lethal dose (LD50) at 168 h greater than 1500 mg/kg.

As to `CN(C)Cc1nc2cc(CSCCNC3=NS(=O)(=O)N=C3N)ccc2[nH]1` [Example 104, 3-[2-<5-(2-dimethylaminomethylbenzimidazolyl)methylthio>ethyl]amino-4-amino-1,2,5-thiadiazole-1.1-dioxide], the inhibition in vivo at 2 mg/kg in series [1] was 96%. In addition, in series [2], the Kb is 1950 nM. Also, the LD50 at 168 h in series [3] (setting [5]) was greater than 1500 mg/kg.

In turn, `CN(C)Cc1nc2cc(CSCCC(N)=NC#N)ccc2[nH]1` [Example 125, N-cyano-3-[5-(2-dimethylaminomethylbenzimidazolyl)methylthio]propionamidine] gave an LD50 at 168 h in series [3] (setting [5]) greater than 1500 mg/kg.

For `NC(=O)N=C(N)CCCOc1ccc2[nH]c(CN3CCCCC3)nc2c1` [Example 118, N-carbamoyl-4-[5-<2-(1-piperidinomethyl)benzimidazolyl>oxy]butyroamidine.3hydrochloride], the LD50 at 168 h in series [3] (setting [5]) was greater than 1500 mg/kg.

As for `CN/C(=N/CCSCc1nc[nH]c1C)NC#N` [Cimetidine, cimetidine, reference compound], the inhibition in vivo at 2 mg/kg in series [4] (Rattus norvegicus, sc, 3 h, read-out: inhibitory effect of acid secretion (%) at 2 mg/kg s.c.) worked out at 63%. Further, the ED50 in series [4] (Rattus norvegicus, sc) came to 2.77 µmol/kg. Moreover, the acid secretion inhibition in series [4] (Table 2, dosage 2.0 μmol/kg) amounted to 37%; in series [4] (Table 2, dosage 5.9 μmol/kg) it was 75%; in series [4] (Table 2, dosage 17.8 μmol/kg), 83%.

With `CN(C)Cc1nc2cc(OCCCNc3nc(N)nn3C)ccc2[nH]1` [Example 91, 1-methyl-5-[3-<5-(2-dimethylaminomethylbenzimidazolyl)oxy>propyl]-1H-1,2,4-triazole-3,5-diamine], in series [1], the inhibition in vivo at 2 mg/kg was determined as 81%. In addition, the Kb in series [2] is 6460 nM.

As to `CNC(=C[N+](=O)[O-])NCCCOc1ccc2[nH]c(CN3CCCC3)nc2c1` [Example 28, 1-nitro-2-methylamino-2-[3-<5-(2-(1-pyrrolidinomethyl)benzimidazolyl)oxy>propylamino]ethylene], the inhibition in vivo at 2 mg/kg in series [1] worked out at 64%. Moreover, in series [2], the Kb is 2450 nM.

Turning to `C#CCNc1n[s+]([O-])nc1NCCSCc1ccc2[nH]c(CN(C)C)nc2c1` (stereo not drawn) [Example 109, 3-[2-<5-(2-dimethylaminomethylbenzimidazolyl)methylthio>ethyl]amino-4-(2-propinylamino)-1,2,5-thiadiazole-1-oxide], the inhibition in vivo at 2 mg/kg in series [1] came out at 74%. The Kb in series [2] is 759 nM.

`CN(C)Cc1nc2cc(CSCCNc3ncc(Cc4cccnc4)c(=O)[nH]3)ccc2[nH]1` [Example 76, 2-[2-<5-(2-dimethylaminomethylbenzimidazolyl)methylthio>ethylamino]-5-(3-pyridylmethyl)-4-pyrimidone]: the inhibition in vivo at 2 mg/kg in series [1] turned out to be 102%. For the same molecule, the Kb in series [2] was 1230 nM.

Consider `CN(C)Cc1nc2cc(CSCCC(N)=NC(N)=O)ccc2[nH]1` [Example 129, N-carbamoyl-3-[5-(2-dimethylaminomethylbenzimidazolyl)methylthio]propionamidine], for which the inhibition in vivo at 2 mg/kg in series [1] was found to be 72%. Also, the Kb in series [2] was 759 nM. Moreover, the LD50 at 168 h in series [3] (setting [5]) is greater than 1500 mg/kg.

For the molecule `CN(C)Cc1nc2cc(OCCCCNc3nc(N)nn3C)ccc2[nH]1` [Example 92, 1-methyl-5-[4-<5-(2-dimethylaminomethylbenzimidazolyl)oxy>butyl]-1H-1,2,4-triazole-3,5-diamine], the inhibition in vivo at 2 mg/kg in series [1] turned out to be 92%. In series [2], the Kb was 5500 nM.

`CN(C)Cc1nc2cc(CSCCC(N)=NS(N)(=O)=O)ccc2[nH]1` [Example 121, N-sulfamoyl-3-[5-(2-dimethylaminomethylbenzimidazolyl)methylthio]propionamidine]: the inhibition in vivo at 2 mg/kg in series [1] amounted to 76%. Besides, the Kb in series [2] was 562 nM.

Regarding `CNC(=C[N+](=O)[O-])NCCCOc1ccc2[nH]c(CN(C)C)nc2c1` [Example 27, 1-nitro-2-methylamino-2-[3-<5-(2-dimethylaminomethylbenzimidazolyl)oxy>propylamino]ethylene], the inhibition in vivo at 2 mg/kg in series [1] turned out to be 73%. Besides, in series [2], the Kb is 16200 nM. Moreover, in series [3] (setting [5]), the LD50 at 168 h was greater than 1500 mg/kg.

Regarding `O=c1ccnc(NCCCOc2ccc3[nH]c(CN4CCCCC4)nc3c2)[nH]1` [Example 59, 2-[3-<5-(2-(1-piperidinomethyl)benzimidazolyl)oxy>propylamino]-4-pyrimidone], the inhibition in vivo at 2 mg/kg in series [1] stood at 74%. Further, in series [2], the Kb was 891 nM.

`CCNc1n[s+]([O-])nc1NCCCSc1ccc2[nH]c(NC(=N)N)nc2c1` (stereo not drawn) [Example 113, 3-N-[3-<5-(2-guanidinobenzimidazolyl)thio>propyl]amino-4-ethylamino-1,2,5-thiadiazole-1-oxide]: the inhibition in vivo at 2 mg/kg in series [1] amounted to 63%. In addition, the Kb in series [2] is 8510 nM.

Regarding `CN(C)Cc1nc2cc(OCCCNc3ncc(Cc4ccc5c(c4)OCO5)c(=O)[nH]3)ccc2[nH]1` [Example 62, 5-[5-(1,3-benzodioxolyl)methyl]-2-[3-<5-(2-dimethylaminomethylbenzimidazolyl)oxy>propylamino]-4-pyrimidone], the inhibition in vivo at 2 mg/kg in series [1] was determined as 84%. Further, the Kb in series [2] is 631 nM.

For `CNC(=NC#N)NCCCOc1ccc2[nH]c(CN3CCCCC3)nc2c1` [Example 5, N-cyano-N'-methyl-N"-{3-[5-<2-(1-piperidinomethyl)benzimidazolyl>oxy]propyl}guanidine], the inhibition in vivo at 2 mg/kg in series [1] amounted to 65%. The Kb in series [2] is 1380 nM.

For the molecule `CNC(=NC#N)NCCSCc1ccc2[nH]c(CN(C)C)nc2c1` [Example 35, N-cyano-N'-methyl-N"-[2-<5-(2-dimethylaminomethylbenzimidazolyl)methylthio>ethyl]guanidine], in series [1], the inhibition in vivo at 2 mg/kg stood at 64%. Further, the Kb in series [2] is 646 nM. Moreover, the LD50 at 168 h in series [3] (setting [5]) was greater than 1500 mg/kg.

Take `C#CCNC1=NS(=O)(=O)N=C1NCCSCc1ccc2[nH]c(CN(C)C)nc2c1` [Example 110, 3-[2-<5-(2-dimethylaminomethylbenzimidazolyl)methylthio>ethyl]amino-4-(2-propynylamino)-1,2,5-thiadoazole-1,1-dioxide]: the inhibition in vivo at 2 mg/kg in series [1] stood at 68%. For the same molecule, in series [2], the Kb is 1580 nM.

Turning to `CNc1n[s+]([O-])nc1NCCSCc1ccc2[nH]c(CN(C)C)nc2c1` (stereo not drawn) [Example 106, 3-[2-<5-(2-dimethylaminomethylbenzimidazolyl)methylthio>ethyl]amino-4-methylamino-1,2,5-thiadiazole-1-oxide], in series [1], the inhibition in vivo at 2 mg/kg was 89%. For the same molecule, the Kb in series [2] was 537 nM.

For `CN(C)Cc1cccc(Cc2cnc(NCCCOc3ccc4[nH]c(CN(C)C)nc4c3)[nH]c2=O)c1` [Example 70, 2-[3-<5-(2-dimethylaminomethylbenzimidazolyl)oxy>propylamino]-5-(3-dimethylaminomethylbenzyl)-4-pyrimidone], in series [1], the inhibition in vivo at 2 mg/kg is 102%. Also, in series [2], the Kb is 2450 nM. This molecule displayed an LD50 at 168 h in series [3] (oral, groups of 5, 7 days observation) of 2800 mg/kg. Besides, the effective ratio in series [4] (ED50 relative to cimetidine = 1.0) is 25.2. In addition, the ED50 in series [4] (Rattus norvegicus, sc, pylorus-ligated rats, 95% confidence limit printed on following lines) is 0.11 µmol/kg. The acid secretion inhibition worked out at 35% in series [4] (Table 2, dosage 0.067 μmol/kg); 71% in series [4] (Table 2, dosage 0.204 μmol/kg); 93% in series [4] (Table 2, dosage 0.613 μmol/kg).
